Where two headings read alike, the source gives them in different places.
How the values were obtained:
PI3Kγ (p120γ) = target: T1, PI3Kγ (p120γ) (Homo sapiens, UniProt P48736); experiment: Inhibition of PI3K kinase activity (ADP Glo), PI3Kγ; conditions: read-out: biochemical potency (PI3Kγ IC50)
T1 construct: purchased Promega V1761
Outline: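 Recombinant p120γ (8 nM, 2× stock) was preincubated with compound for 1 h at rt in HEPES pH 7.4, NaCl, MgCl2 and 0.05% BSA. Reaction was started with PIP2 (0.1 mg/ml, 2×) and ATP (50 μM, 2×) and ran 60 min at rt. ADP formed was read by ADP-Glo luminescence, and IC50 came from a 4-parameter fit.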

PI3Kγ = target: T2, PI3Kγ (Homo sapiens, UniProt P48736); experiment: PI3Kγ cellular assay in THP-1 cells (AKT pS473 AlphaLISA); type: cell-based
T2 construct: host or cells: THP-1
Outline: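 Serum-starved THP-1 cells (1.8×10^5/well, serum-free DMEM) treated with compounds from 4 nM to 30 μM in 2% DMSO, then stimulated and lysed.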

[1] = Table 1, rhMCP-1 stimulated AKT pS473, read-out: cellular potency (PI3Kγ IC50)
[2] = Table 2, rhMCP-1 stimulated AKT pS473, read-out: cellular potency (PI3Kγ IC50)
[3] = Table 3, rhMCP-1 stimulated AKT pS473, read-out: cellular potency (PI3Kγ IC50)
[4] = Table 6, rhMCP-1 stimulated AKT pS473, read-out: cellular potency (PI3Kγ IC50)
[5] = AKT pS473, read-out: cellular potency (PI3Kγ IC50)

T2 sequence (P48736 whole entry): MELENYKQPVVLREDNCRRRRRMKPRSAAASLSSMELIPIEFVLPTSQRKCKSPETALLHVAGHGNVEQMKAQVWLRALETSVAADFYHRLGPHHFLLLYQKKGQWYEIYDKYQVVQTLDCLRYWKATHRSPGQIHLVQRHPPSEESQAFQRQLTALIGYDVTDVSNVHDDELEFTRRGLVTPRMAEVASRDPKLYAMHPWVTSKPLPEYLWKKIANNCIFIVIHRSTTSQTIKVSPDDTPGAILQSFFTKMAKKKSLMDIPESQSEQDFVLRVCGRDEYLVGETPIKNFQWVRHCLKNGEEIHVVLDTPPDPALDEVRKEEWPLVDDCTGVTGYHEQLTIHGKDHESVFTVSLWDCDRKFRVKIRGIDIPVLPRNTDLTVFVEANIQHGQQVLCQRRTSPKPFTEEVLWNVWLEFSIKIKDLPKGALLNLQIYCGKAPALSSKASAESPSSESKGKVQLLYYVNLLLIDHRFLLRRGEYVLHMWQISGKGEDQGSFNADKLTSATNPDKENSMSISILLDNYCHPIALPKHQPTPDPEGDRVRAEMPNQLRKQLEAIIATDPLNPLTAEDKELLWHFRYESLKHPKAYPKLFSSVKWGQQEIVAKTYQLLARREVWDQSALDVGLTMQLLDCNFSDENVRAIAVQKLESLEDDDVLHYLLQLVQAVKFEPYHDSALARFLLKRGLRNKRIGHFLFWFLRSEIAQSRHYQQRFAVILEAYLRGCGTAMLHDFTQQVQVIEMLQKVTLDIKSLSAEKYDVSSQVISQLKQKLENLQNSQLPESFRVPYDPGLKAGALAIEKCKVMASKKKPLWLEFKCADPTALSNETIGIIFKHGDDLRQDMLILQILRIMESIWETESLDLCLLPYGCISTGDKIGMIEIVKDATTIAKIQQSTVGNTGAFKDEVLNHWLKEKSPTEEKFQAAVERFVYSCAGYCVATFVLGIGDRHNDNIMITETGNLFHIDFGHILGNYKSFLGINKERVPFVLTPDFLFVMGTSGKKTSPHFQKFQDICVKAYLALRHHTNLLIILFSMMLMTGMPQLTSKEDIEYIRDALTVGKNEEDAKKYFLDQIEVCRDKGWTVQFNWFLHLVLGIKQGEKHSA
T1 sequence (P48736 whole entry): as above

SMILES: C[C@@H](C1CC1)N1Cc2cc(-c3ccn4nc(N)c(C(=O)N[C@H]5CC[C@@](C)(O)CC5)c4n3)cc(S(C)(=O)=O)c2C1=O [Example 131, 2-Amino-5-{2-[(1S)-1-cyclopropylethyl]-7-methanesulfonyl-1-oxo-2,3-dihydro-1H-isoindol-5-yl}-N-[cis-4-hydroxy-4-methylcyclohexyl]pyrazolo[1,5-a]pyrimidine-3-carboxamide]
- IC50 (PI3Kγ (p120γ); Table 1, p120γ): < 0.1 µM
- IC50 (PI3Kγ; [1]): < 0.1 µM

SMILES: CCNC(=O)c1c(N)nn2ccc(-c3cc4c(c(NS(C)(=O)=O)c3)C(=O)N([C@@H](C)C3CC3)C4)nc12 [Example 74, 2-Amino-5-{2-[(1S)-1-cyclopropylethyl]-7-methanesulfonamido-1-oxo-2,3-dihydro-1H-isoindol-5-yl}-N-ethylpyrazolo[1,5-a]pyrimidine-3-carboxamide]
- IC50 (PI3Kγ (p120γ); Table 1, p120γ): < 0.1 µM
- IC50 (PI3Kγ; [1]): < 0.1 µM

SMILES: CCN1Cc2cc(-c3ccn4nc(N)c(C(=O)NC5CC5)c4n3)cc(C)c2C1=O [Example 305]
- IC50 (PI3Kγ (p120γ); Table 2, p120γ): < 0.1 µM
- IC50 (PI3Kγ; [2]): 0.1 to 1 µM

SMILES: C[C@@H](C1CC1)N1Cc2cc(-c3ccn4nc(N)c(C(=O)NC(C)(C)CO)c4n3)cc(C(F)(F)F)c2C1=O [Example 335]
- IC50 (PI3Kγ (p120γ); Table 3, p120γ): < 0.1 µM
- IC50 (PI3Kγ; [3]): 0.1 to 1 µM

SMILES: C[C@@H](C1CC1)N1Cc2cc(-c3ccn4nc(N)c(C(=O)N[C@H]5CC[C@@](C)(O)CC5)c4n3)cc(N3CCN(C)CC3)c2C1=O [Example 437]
- IC50 (PI3Kγ (p120γ); Table 6, p120γ): < 0.1 µM
- IC50 (PI3Kγ; [4]): 0.1 to 1 µM

SMILES: Cc1cc(-c2ccn3nc(N)c(C(=O)N[C@H]4CCC[C@@H]4O)c3n2)cc2c1C(=O)N([C@@H](C)C1CC1)C2 [Example 210]
- IC50 (PI3Kγ (p120γ); Table 2, p120γ): < 0.1 µM
- IC50 (PI3Kγ; [2]): 0.1 to 1 µM

SMILES: Cc1cc(-c2ccn3nc(N)c(C(=O)N[C@@H]4CCC[C@@H](O)C4)c3n2)cc2c1C(=O)N([C@@H](C)C1CC1)C2 [Example 11, 2-Amino-5-{2-[(1S)-1-cyclopropylethyl]-7-methyl-1-oxo-2,3-dihydro-1H-isoindol-5-yl}-N-[(1R,3R)-3-hydroxycyclohexyl]pyrazolo[1,5-a]pyrimidine-3-carboxamide]
- IC50 (PI3Kγ (p120γ); Table 1, p120γ): < 0.1 µM
- IC50 (PI3Kγ; [1]): < 0.1 µM

SMILES: C[C@@H](C1CC1)N1Cc2cc(-c3ccn4nc(N)c(C(=O)Nc5cccnc5)c4n3)cc(OC(F)F)c2C1=O [Example 161, 2-Amino-5-{2-[(1S)-1-cyclopropylethyl]-7-(difluoromethoxy)-1-oxo-2,3-dihydro-1H-isoindol-5-yl}-N-(pyridin-3-yl)pyrazolo[1,5-a]pyrimidine-3-carboxamide]
- IC50 (PI3Kγ (p120γ); Table 1, p120γ): < 0.1 µM
- IC50 (PI3Kγ; [1]): < 0.1 µM

SMILES: Cc1cc(-c2ccn3nc(N)c(C(=O)N[C@H]4C[C@@](C)(O)C4)c3n2)cc2c1C(=O)N([C@@H](C)C1CC1)C2 [Example 196]
- IC50 (PI3Kγ (p120γ); Table 2, p120γ): < 0.1 µM
- IC50 (PI3Kγ; [2]): 0.1 to 1 µM

SMILES: C[C@@H](C1CC1)N1Cc2cc(-c3ccn4nc(N)c(C(=O)N[C@H]5CC[C@](O)(C(F)(F)F)CC5)c4n3)cc(NS(C)(=O)=O)c2C1=O [Example 90, 2-Amino-5-{2-[(1S)-1-cyclopropylethyl]-7-methanesulfonamido-1-oxo-2,3-dihydro-1H-isoindol-5-yl}-N-[cis-4-hydroxy-4-(trifluoromethyl)cyclohexyl]pyrazolo[1,5-a]pyrimidine-3-carboxamide]
- IC50 (PI3Kγ (p120γ); Table 1, p120γ): < 0.1 µM
- IC50 (PI3Kγ; [1]): < 0.1 µM

SMILES: Cc1cc(-c2ccn3nc(N)c(C(=O)N4CC(O)C4)c3n2)cc2c1C(=O)N(C(C)C1CC1)C2 (stereo not drawn) [Example 251]
- IC50 (PI3Kγ (p120γ); Table 2, p120γ): < 0.1 µM
- IC50 (PI3Kγ; [2]): 0.1 to 1 µM

SMILES: C[C@@H](C1CC1)N1Cc2cc(-c3ccn4nc(N)c(C(=O)NC5CC5)c4n3)cc(NS(=O)(=O)N3CCOCC3)c2C1=O [Example 409]
- IC50 (PI3Kγ (p120γ); Table 6, p120γ): < 0.1 µM
- IC50 (PI3Kγ; [4]): 0.1 to 1 µM

SMILES: Cc1cc(-c2ccn3nc(N)c(C(=O)N[C@H](C)c4ccncc4)c3n2)cc2c1C(=O)N([C@@H](C)C1CC1)C2 [Example 219]
- IC50 (PI3Kγ (p120γ); Table 2, p120γ): < 0.1 µM
- IC50 (PI3Kγ; [2]): 0.1 to 1 µM

SMILES: C[C@@H](C1CC1)N1Cc2cc(-c3ccn4nc(N)c(C(=O)N[C@H]5CNC[C@H]5O)c4n3)cc(C(F)(F)F)c2C1=O [Example 357]
- IC50 (PI3Kγ (p120γ); Table 3, p120γ): < 0.1 µM
- IC50 (PI3Kγ; [3]): > 1 µM

SMILES: C[C@@H](C1CC1)N1Cc2cc(-c3ccn4nc(N)c(C(=O)NC5CC5)c4n3)cc(C#N)c2C1=O [Example 451]
- IC50 (PI3Kγ (p120γ); Table 6, p120γ): < 0.1 µM
- IC50 (PI3Kγ; [4]): 0.1 to 1 µM

SMILES: Cc1cc(-c2ccn3nc(N)c(C(=O)N[C@H]4c5ccccc5C[C@@H]4O)c3n2)cc2c1C(=O)N([C@@H](C)C1CC1)C2 [Example 272]
- IC50 (PI3Kγ (p120γ); Table 2, p120γ): < 0.1 µM
- IC50 (PI3Kγ; [2]): > 1 µM

SMILES: C[C@@H](C1CC1)N1Cc2cc(-c3ccn4nc(N)c(C(=O)Nc5ccccc5)c4n3)cc(C(F)(F)F)c2C1=O [Example 363]
- IC50 (PI3Kγ (p120γ); Table 3, p120γ): < 0.1 µM
- IC50 (PI3Kγ; [3]): > 1 µM

SMILES: CCNC(=O)c1c(N)nn2ccc(-c3cc(C)c4c(c3)CN([C@@H](C)C3CC3)C4=O)nc12 [Example 233]
- IC50 (PI3Kγ (p120γ); Table 2, p120γ): < 0.1 µM
- IC50 (PI3Kγ; [2]): 0.1 to 1 µM

SMILES: Cc1cc(-c2ccn3nc(N)c(C(=O)NC4CC4)c3n2)cc2c1C(=O)N(CC(C)(C)O)C2 [Example 319]
- IC50 (PI3Kγ (p120γ); Table 2, p120γ): < 0.1 µM
- IC50 (PI3Kγ; [2]): 0.1 to 1 µM

SMILES: Cc1cc(-c2ccn3nc(N)c(C(=O)N4CCC4CO)c3n2)cc2c1C(=O)N(C(C)C1CC1)C2 (stereo not drawn) [Example 174]
- IC50 (PI3Kγ (p120γ); Table 2, p120γ): < 0.1 µM
- IC50 (PI3Kγ; [2]): 0.1 to 1 µM

SMILES: Cc1cc(-c2ccn3nc(N)c(C(=O)N[C@@H](CO)C4CC4)c3n2)cc2c1C(=O)N([C@@H](C)C1CC1)C2 [Example 195]
- IC50 (PI3Kγ (p120γ); Table 2, p120γ): < 0.1 µM
- IC50 (PI3Kγ; [2]): 0.1 to 1 µM

SMILES: C[C@H](CO)NC(=O)c1c(N)nn2ccc(-c3cc4c(c(OC(F)(F)F)c3)C(=O)N([C@@H](C)C3CC3)C4)nc12 [Example 22, 2-Amino-5-{2-[(1S)-1-cyclopropylethyl]-1-oxo-7-(trifluoromethoxy)-2,3-dihydro-1H-isoindol-5-yl}-N-[(2R)-1-hydroxypropan-2-yl]pyrazolo[1,5-a]pyrimidine-3-carboxamide]
- IC50 (PI3Kγ (p120γ); Table 1, p120γ): < 0.1 µM
- IC50 (PI3Kγ; [1]): < 0.1 µM

SMILES: C[C@@H](C1CC1)N1Cc2cc(-c3ccn4nc(N)c(C(=O)NC5(C)COC5)c4n3)cc(NS(C)(=O)=O)c2C1=O [Example 79, 2-Amino-5-{2-[(1S)-1-cyclopropylethyl]-7-methanesulfonamido-1-oxo-2,3-dihydro-1H-isoindol-5-yl}-N-(3-methyloxetan-3-yl)pyrazolo[1,5-a]pyrimidine-3-carboxamide]
- IC50 (PI3Kγ (p120γ); Table 1, p120γ): < 0.1 µM
- IC50 (PI3Kγ; [1]): < 0.1 µM

SMILES: C[C@H](CO)NC(=O)c1c(N)nn2ccc(-c3cc4c(c(NS(C)(=O)=O)c3)C(=O)N([C@@H](C)C3CC3)C4)nc12 [Example 93, 2-Amino-5-{2-[(1S)-1-cyclopropylethyl]-7-methanesulfonamido-1-oxo-2,3-dihydro-1H-isoindol-5-yl}-N-[(2R)-1-hydroxypropan-2-yl]pyrazolo[1,5-a]pyrimidine-3-carboxamide]
- IC50 (PI3Kγ (p120γ); Table 1, p120γ): < 0.1 µM
- IC50 (PI3Kγ; [1]): < 0.1 µM

SMILES: C[C@@H](C1CC1)N1Cc2cc(-c3ccn4nc(N)c(C(=O)N[C@@H](CO)C(F)(F)F)c4n3)cc(NS(C)(=O)=O)c2C1=O [Example 376]
- IC50 (PI3Kγ (p120γ)): < 0.1 µM
- IC50 (PI3Kγ; [5]): 0.1 to 1 µM

SMILES: C[C@@H](C1CC1)N1Cc2cc(-c3ccn4nc(N)c(C(N)=O)c4n3)cc(C(F)(F)F)c2C1=O [Example 66]
- IC50 (PI3Kγ (p120γ); Table 1, p120γ): < 0.1 µM
- IC50 (PI3Kγ; [1]): 0.1 to 1 µM

SMILES: C[C@@H](C1CC1)N1Cc2cc(-c3ccn4nc(N)c(C(=O)Nc5cnn(C)c5)c4n3)cc(S(C)(=O)=O)c2C1=O [Example 130, 2-Amino-5-{2-[(1S)-1-cyclopropylethyl]-7-methanesulfonyl-1-oxo-2,3-dihydro-1H-isoindol-5-yl}-N-(1-methyl-1H-pyrazol-4-yl)pyrazolo[1,5-a]pyrimidine-3-carboxamide]
- IC50 (PI3Kγ (p120γ); Table 1, p120γ): < 0.1 µM
- IC50 (PI3Kγ; [1]): < 0.1 µM

SMILES: C[C@@H](C1CC1)N1Cc2cc(-c3ccn4nc(N)c(C(=O)N[C@@H](CO)C5CC5)c4n3)cc(OC(F)(F)F)c2C1=O [Example 26, 2-Amino-N-[(1R)-1-cyclopropyl-2-hydroxyethyl]-5-{2-[(1S)-1-cyclopropylethyl]-1-oxo-7-(trifluoromethoxy)-2,3-dihydro-1H-isoindol-5-yl}pyrazolo[1,5-a]pyrimidine-3-carboxamide]
- IC50 (PI3Kγ (p120γ); Table 1, p120γ): < 0.1 µM
- IC50 (PI3Kγ; [1]): < 0.1 µM

SMILES: Cc1cc(-c2ccn3nc(N)c(C(=O)NC[C@@H](C)O)c3n2)cc2c1C(=O)N([C@@H](C)C1CC1)C2 [Example 227]
- IC50 (PI3Kγ (p120γ); Table 2, p120γ): < 0.1 µM
- IC50 (PI3Kγ; [2]): 0.1 to 1 µM

SMILES: Cc1ccc(NC(=O)c2c(N)nn3ccc(-c4cc5c(c(OC(F)(F)F)c4)C(=O)N([C@@H](C)C4CC4)C5)nc23)cn1 [Example 45, 2-[(S)-1-Cyclopropylethyl]-5-{2-amino-3-[(6-methyl-3-pyridylamino)carbonyl]-1,4,7a-triaza-5-indenyl}-7-trifluoromethoxy-1-isoindolinone]
- IC50 (PI3Kγ (p120γ); Table 1, p120γ): < 0.1 µM
- IC50 (PI3Kγ; [1]): < 0.1 µM

SMILES: C[C@@H](C1CC1)N1Cc2cc(-c3ccn4nc(N)c(C(=O)N[C@H]5CCCNC5)c4n3)cc(OC(F)(F)F)c2C1=O [Example 421]
- IC50 (PI3Kγ (p120γ); Table 6, p120γ): < 0.1 µM
- IC50 (PI3Kγ; [4]): 0.1 to 1 µM

SMILES: COc1cncc(NC(=O)c2c(N)nn3ccc(-c4cc5c(c(OC(F)(F)F)c4)C(=O)N([C@@H](C)C4CC4)C5)nc23)c1 [Example 43, 2-Amino-5-{2-[(1S)-1-cyclopropylethyl]-1-oxo-7-(trifluoromethoxy)-2,3-dihydro-1H-isoindol-5-yl}-N-(5-methoxypyridin-3-yl)pyrazolo[1,5-a]pyrimidine-3-carboxamide]
- IC50 (PI3Kγ (p120γ); Table 1, p120γ): < 0.1 µM
- IC50 (PI3Kγ; [1]): < 0.1 µM

SMILES: COC(=O)c1ccc(NC(=O)c2c(N)nn3ccc(-c4cc5c(c(NS(C)(=O)=O)c4)C(=O)N([C@@H](C)C4CC4)C5)nc23)cn1 [Example 395]
- IC50 (PI3Kγ (p120γ)): < 0.1 µM
- IC50 (PI3Kγ; [5]): 0.1 to 1 µM

Reference: patent US20230024302A1, “2,3,5-TRISUBSTITUTED PYRAZOLO[1,5-A]PYRIMIDINE COMPOUNDS” (Arcus Biosciences, Inc., priority 2019, published 2023)
